ChEMBL document CHEMBL1158536, “How well can the Caco-2/Madin-Darby canine kidney models predict effective human jejunal permeability?” (J Med Chem, 2010)

Assays:
[1] = clinical; settings: human
[2] = caco-2
[3] = Absolute bioavailability in human; type: ADME, organism-based; settings: in vivo
[4] = Octanol-water partition coefficient, log P of the compound; type: physicochemical
[5] = Dissociation constant, pKa of the compound; type: physicochemical
[6] = human

Compound	Papp [1] [×10⁻⁶ cm/s]	Daq [2] [×10⁻⁶ cm2/s]	bioavailability [3] [%]	logP ([4]; read-out: logP)	pKa [5]	permeability [6] [×10⁻⁴ cm/s]	logP [4]
NC(CO)C(=O)NNCc1ccc(O)c(O)c1O (stereo not given) [BENSERAZIDE]	290	8	70	-1.78	6.19		
COC1=CC(=O)C[C@@H](C)[C@]12Oc1c(Cl)c(OC)cc(OC)c1C2=O [GRISEOFULVIN]	114	6.9	95				
CNC(=C[N+](=O)[O-])NCCSCc1ccc(CN(C)C)o1 [RANITIDINE]	27.3	7.3	50		2.11		
C[C@H](N[C@@H](CCc1ccccc1)C(=O)O)C(=O)N1CCC[C@H]1C(=O)O [ENALAPRILAT ANHYDROUS]	10	7	8		3.2		
O=C(O)c1ccccc1O [SALICYLIC ACID]	267	10.6	100				
CC(C)C[C@H](N)C(=O)O [LEUCINE]	620	10.9	100		2.38		
CCCc1cc(=O)[nH]c(=S)[nH]1 [PROPYLTHIOURACIL]			85				
COc1ccc2cc([C@H](C)C(=O)O)ccc2c1 [NAPROXEN]		8.4					
NC(N)=O [UREA]	140	15.5		-1.64			
CC1(C)S[C@@H]2[C@H](NC(=O)[C@H](N)c3ccc(O)cc3)C(=O)N2[C@H]1C(=O)O [AMOXICILLIN]	30	6.8	45				
CCC[C@@H]1C[C@@H](C(=O)N[C@@H]([C@H]2O[C@H](SC)[C@H](O)[C@@H](O)[C@H]2O)[C@@H](C)O)N(C)C1 [LINCOMYCIN]			25				
CC1COc2c(N3CCN(C)CC3)c(F)cc3c(=O)c(C(=O)O)cn1c23 (stereo not given) [OFLOXACIN]			90				
CCOC(=O)[C@H](CCc1ccccc1)N[C@@H](C)C(=O)N1CCC[C@H]1C(=O)O	157	6.7	51	-1.39	2.92		
CC1=C(/C=C/C(C)=C/C=C/C(C)=C/C(=O)O)C(C)(C)CCC1 [TRETINOIN]	99	7.5	90				
COc1cc([C@@H]2c3cc4c(cc3[C@@H](O[C@@H]3O[C@@H]5CO[C@@H](C)O[C@H]5[C@H](O)[C@H]3O)[C@H]3COC(=O)[C@H]23)OCO4)cc(OC)c1O [ETOPOSIDE]			52				
COc1ccc(CCN(C)CCCC(C#N)(c2ccc(OC)c(OC)c2)C(C)C)cc1OC (stereo not given)			84				
CN1C(C(=O)Nc2ccccn2)=C(O)c2ccccc2S1(=O)=O [PIROXICAM]	665	7.1	100				
COc1ccc2c(c1)c(CC(=O)O)c(C)n2C(=O)c1ccc(Cl)cc1 [INDOMETHACIN]			99				
N[C@@H](Cc1ccc(O)c(O)c1)C(=O)O [LEVODOPA]	340	9	100	-3	2.21		
Cc1cc(=O)n(-c2ccccc2)n1C [ANTIPYRINE]		9.2	99		1.3	2.07	
C[C@](N)(Cc1ccc(O)c(O)c1)C(=O)O [METHYLDOPA]	10	8.8	26	-3	2.21		
CN1CC(=O)NC1=N [CREATININE]	29	11.6	80		4.66		-3
Cn1c(=O)c2c(ncn2C)n(C)c1=O [CAFFEINE]			98				
CNCCCN1c2ccccc2CCc2ccccc21 [DESIPRAMINE]	440	7.9	70				
O=c1c(O[C@@H]2O[C@H](CO)[C@@H](O)[C@H](O)[C@H]2O)c(-c2ccc(O[C@@H]3O[C@H](CO)[C@@H](O)[C@H](O)[C@H]3O)c(O)c2)oc2cc(O)cc(O)c12	890	6.1	60	3.24	6.9		
COc1cc(Cc2cnc(N)nc2N)cc(OC)c1OC [TRIMETHOPRIM]			98				
N=C(N)NC(=O)c1nc(Cl)c(N)nc1N [AMILORIDE]	163	8.4	50	-0.26			
CN/C(=N/CCSCc1nc[nH]c1C)NC#N [CIMETIDINE]	26	8.1	60		6.76		

Compound	Papp [1] [×10⁻⁶ cm/s]	Daq [2] [×10⁻⁶ cm2/s]	bioavailability [3] [%]	logP ([4]; read-out: logP)	pKa [5]	permeability [6] [×10⁻⁴ cm/s]	logP [4]
CC(C)NCC(O)COc1ccc(CC(N)=O)cc1 (stereo not given) [ATENOLOL]		7.9					
NC(=O)N1c2ccccc2C=Cc2ccccc21 [CARBAMAZEPINE]	430	8.3	90				
CC(C)NCC(O)c1ccc(NS(C)(=O)=O)cc1 (stereo not given) [SOTALOL]			95				
CC(C)NCC(O)COc1cccc2ccccc12 (stereo not given) [PROPRANOLOL]		8	100				
C[S+]([O-])CCCCN=C=S (stereo not given) [SULFORAPHANE]		9.5	74	1.68		18.7	
CC(C)n1c(/C=C/C(O)CC(O)CC(=O)O)c(-c2ccc(F)cc2)c2ccccc21 (stereo not given) [FLUVASTATIN]	238	6.5	95				
NS(=O)(=O)c1cc(C(=O)O)c(NCc2ccco2)cc1Cl [FUROSEMIDE]		7.1					
C[C@H]1O[C@@H](O[C@H]2[C@@H](O)C[C@H](O[C@H]3[C@@H](O)C[C@H](O[C@H]4CC[C@@]5(C)[C@H](CC[C@@H]6[C@@H]5C[C@@H](O)[C@]5(C)[C@@H](C7=CC(=O)OC7)CC[C@]65O)C4)O[C@@H]3C)O[C@@H]2C)C[C@H](O)[C@@H]1O [DIGOXIN]			70				
O=C(O)Cc1ccccc1Nc1c(Cl)cccc1Cl [DICLOFENAC]			54				
O=C(N[C@H](CO)[C@H](O)c1ccc([N+](=O)[O-])cc1)C(Cl)Cl [CHLORAMPHENICOL]			82				
CCCCc1nc(Cl)c(CO)n1Cc1ccc(-c2ccccc2-c2nn[nH]n2)cc1 [LOSARTAN]	114	6.4	50	3.74	2.95		
COCCc1ccc(OCC(O)CNC(C)C)cc1 (stereo not given) [METOPROLOL]	90	7.9					
CC(C)(C)NCC(O)COc1cccc2c1CC(O)C(O)C2 (stereo not given) [NADOLOL]			30				
N[C@@H](Cc1ccccc1)C(=O)O [PHENYLALANINE]	336	9.8	100		2.2		
CC(C(=O)O)c1cccc(C(=O)c2ccccc2)c1 (stereo not given) [KETOPROFEN]	840	8		3.16			
NCCCC[C@H](N[C@@H](CCc1ccccc1)C(=O)O)C(=O)N1CCC[C@H]1C(=O)O [LISINOPRIL ANHYDROUS]			27	-2.86	3.16		
OC[C@H]1OC(O)[C@H](O)[C@@H](O)[C@@H]1O (stereo not given in full) [DEXTROSE]	560	9.4	100	-0.67			
CC(C)[C@H](N)C(=O)OCCOCn1cnc2c(=O)[nH]c(N)nc21 [VALACYCLOVIR]	166	7.2	80	-1.04	7.4		
NS(=O)(=O)c1cc2c(cc1Cl)NCNS2(=O)=O [HYDROCHLOROTHIAZIDE]	4	7.5	55	-0.03			
Cc1cc(NC(=O)C2=C(O)c3ccccc3S(=O)(=O)N2C)no1 [ISOXICAM]			100				
CC1=C(C(=O)O)N2C(=O)[C@@H](NC(=O)[C@H](N)c3ccccc3)[C@H]2SC1 [CEPHALEXIN ANHYDROUS]		7					
CC(C)(C)NCC(O)c1cc(O)cc(O)c1 (stereo not given) [TERBUTALINE]	30	8.5		-0.08	8.67		
CC(C)Cc1ccc(C(C)C(=O)O)cc1 (stereo not given) [IBUPROFEN]			85				
N=C(N)NCCCNC(=O)[C@@H]1CCCCN1C(=O)[C@@H](CC1CCCCC1)NCC(=O)O [INOGATRAN]			5	-0.6	1.6		
CC(=O)Nc1ccc(O)cc1 [ACETAMINOPHEN]		10.2	85		9.63	1.76	
O [WATER]	140	26.7					
O=C1OC2(c3ccc(O)cc3Oc3cc(O)ccc32)c2ccccc21 [FLUORESCEIN]			99				
